The subject of this experiment is rabbit skeletal myofibrils (fast skeletal myofibrils). Description: Activation of fast skeletal myofibrils (PUMA assay, AC1.4). Conditions: calcium at pCa25, AC1.4 = concentration at which the compound increased the enzymatic activity. Format: biochemical. The gist of the method:
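Detergent-washed rabbit psoas myofibrils (~90% fast fibers), calcium set to give 25% of maximal rate (pCa25). ATPase followed by pyruvate kinase/lactate dehydrogenase-coupled NADH oxidation, absorbance at 340 nm. PM12 buffer: 12 mM PIPES, 2 mM MgCl2, 1 mM DTT, pH 6.8.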
Regarding `CC[C@H](C)[C@H]1C(=O)Nc2ccccc2CN1C(=O)N(CCO)C(C)C` [Compound 135, (S)-3-((S)-sec-butyl)-N-(2-hydroxyethyl)-N-isopropyl-2-oxo-1,2,3,5-tetrahydro-4H-benzo[e][1,4]diazepine-4-carboxamide], the AC1.4 was 3.72 µM. With `CC[C@H](C)[C@H]1C(=O)Nc2ccccc2CN1C(=O)N1C[C@@H](O)[C@@H](O)C1` [Compound 137, (S)-3-((S)-sec-butyl)-4-((3R,4S)-3,4-dihydroxypyrrolidine-1-carbonyl)-1,3,4,5-tetrahydro-2H-benzo[e][1,4]diazepin-2-one] the figure was 3.35 µM; with `CC[C@H](C)[C@H]1C(=O)Nc2ccccc2CN1C(=O)NC1CN(C)C1` [Compound 138, (S)-3-((S)-sec-butyl)-N-(1-methylazetidin-3-yl)-2-oxo-1,2,3,5-tetrahydro-4H-benzo[e][1,4]diazepine-4-carboxamide], 0.52 µM; with `CC[C@H](C)[C@H]1C(=O)Nc2ccccc2CN1C(=O)NC1CN(C2COC2)C1` [Compound 139, (S)-3-((S)-sec-butyl)-N-(1-(oxetan-3-yl)azetidin-3-yl)-2-oxo-1,2,3,5-tetrahydro-4H-benzo[e][1,4]diazepine-4-carboxamide], 0.93 µM. Regarding `CC[C@H](C)[C@H]1C(=O)Nc2ccccc2CN1C(=O)N1C[C@@H](O)[C@H](O)C1` [Compound 140, (S)-3-((S)-sec-butyl)-4-((3R,4R)-3,4-dihydroxypyrrolidine-1-carbonyl)-1,3,4,5-tetrahydro-2H-benzo[e][1,4]diazepin-2-one], the AC1.4 turned out to be 4.74 µM. With `CC[C@H](C)[C@H]1C(=O)Nc2ccccc2CN1C(=O)N[C@H]1CCN(CCO)C1` [Compound 141, (S)-3-((S)-sec-butyl)-N-((S)-1-(2-hydroxyethyl)pyrrolidin-3-yl)-2-oxo-1,2,3,5-tetrahydro-4H-benzo[e][1,4]diazepine-4-carboxamide] the figure was 0.54 µM; with `CC[C@H](C)[C@H]1C(=O)Nc2ccccc2CN1C(=O)NC1CCNCC1` [Compound 142, (S)-3-((S)-sec-butyl)-2-oxo-N-(piperidin-4-yl)-1,2,3,5-tetrahydro-4H-benzo[e][1,4]diazepine-4-carboxamide], 0.36 µM. With `CC[C@H](C)[C@H]1C(=O)Nc2ccccc2CN1C(=O)N[C@@H]1CCN(C)C1` [Compound 143, (S)-3-((S)-sec-butyl)-N-((R)-1-methylpyrrolidin-3-yl)-2-oxo-1,2,3,5-tetrahydro-4H-benzo[e][1,4]diazepine-4-carboxamide] the figure was 0.35 µM.

For `CC[C@H](C)[C@H]1C(=O)Nc2ccccc2CN1C#N` [Compound 145, (S)-3-((S)-sec-butyl)-2-oxo-1,2,3,5-tetrahydro-4H-benzo[e][1,4]diazepine-4-carbonitrile], the AC1.4 came out at 0.50 µM. With `CC[C@H](C)[C@H]1C(=O)Nc2ccccc2CN1C(=N)NO` [Compound 146, (S)-3-((S)-sec-butyl)-N-hydroxy-2-oxo-1,2,3,5-tetrahydro-4H-benzo[e][1,4]diazepine-4-carboximidamide] the figure was 0.30 µM; with `CC[C@H](C)[C@H]1C(=O)Nc2ccccc2CN1C(=O)C(C)(C)C(N)=O` [Compound 147, 3-((S)-3-((S)-sec-butyl)-2-oxo-1,2,3,5-tetrahydro-4H-benzo[e][1,4]diazepin-4-yl)-2,2-dimethyl-3-oxopropanamide], 2.57 µM; with `CC[C@H](C)[C@H]1C(=O)Nc2ccccc2CN1C(=O)C1CC(=O)N(C)C1` (some centres unmarked) [Compound 148], 0.98 µM. Turning to `CC[C@H](C)[C@H]1C(=O)Nc2ccccc2CN1C(=O)CC(C)(C)O` [Compound 149], the AC1.4 turned out to be 2.08 µM.

With `CC[C@H](C)[C@H]1C(=O)Nc2ccccc2CN1C(=O)c1cc2ncccc2[nH]1` [Compound 150, (S)-3-((S)-sec-butyl)-4-(1H-pyrrolo[3,2-b]pyridine-2-carbonyl)-1,3,4,5-tetrahydro-2H-benzo[e][1,4]diazepin-2-one], the AC1.4 is 0.03 µM. For `CC[C@H](C)[C@H]1C(=O)Nc2ccccc2CN1C(=O)c1cc2ccncc2[nH]1` [Compound 151, (S)-3-((S)-sec-butyl)-4-(1H-pyrrolo[2,3-c]pyridine-2-carbonyl)-1,3,4,5-tetrahydro-2H-benzo[e][1,4]diazepin-2-one] the value was 0.06 µM. With `CC[C@H](C)[C@H]1C(=O)Nc2ccccc2CN1C(=O)c1ncn[nH]1` [Compound 152, (S)-3-((S)-sec-butyl)-4-(1H-1,2,4-triazole-5-carbonyl)-1,3,4,5-tetrahydro-2H-benzo[e][1,4]diazepin-2-one] the figure was 0.07 µM; with `CC[C@H](C)[C@H]1C(=O)Nc2ccccc2CN1C(=O)c1c[nH]nn1` [Compound 153, (S)-3-((S)-sec-butyl)-4-(1H-1,2,3-triazole-4-carbonyl)-1,3,4,5-tetrahydro-2H-benzo[e][1,4]diazepin-2-one], 0.09 µM; with `CC[C@H](C)[C@H]1C(=O)Nc2ccccc2CN1C(=O)c1cccc(=O)n1C` [Compound 154, (S)-3-((S)-sec-butyl)-4-(1-methyl-6-oxo-1,6-dihydropyridine-2-carbonyl)-1,3,4,5-tetrahydro-2H-benzo[e][1,4]diazepin-2-one], 0.65 µM.

Regarding `CC[C@H](C)[C@H]1C(=O)Nc2ccccc2CN1C(=O)c1ccc(=O)[nH]c1` [Compound 155, (S)-3-((S)-sec-butyl)-4-(6-oxo-1,6-dihydropyridine-3-carbonyl)-1,3,4,5-tetrahydro-2H-benzo[e][1,4]diazepin-2-one], the AC1.4 worked out at 0.54 µM. With `CC[C@H](C)[C@H]1C(=O)Nc2ccccc2CN1C(=O)c1ccc(=O)n(C)c1` [Compound 156, (S)-3-((S)-sec-butyl)-4-(1-methyl-6-oxo-1,6-dihydropyridine-3-carbonyl)-1,3,4,5-tetrahydro-2H-benzo[e][1,4]diazepin-2-one], the AC1.4 turned out to be 0.90 µM. With `CC[C@H](C)[C@H]1C(=O)Nc2ccccc2CN1C(=O)c1cnn(C)n1` [Compound 157, (S)-3-((S)-sec-butyl)-4-(2-methyl-2H-1,2,3-triazole-4-carbonyl)-1,3,4,5-tetrahydro-2H-benzo[e][1,4]diazepin-2-one], the AC1.4 was 0.11 µM. For `CC[C@H](C)[C@H]1C(=O)Nc2ccccc2CN1C(=O)c1ccc(C(N)=O)nc1` [Compound 158, 5-((S)-3-((S)-sec-butyl)-2-oxo-2,3,4,5-tetrahydro-1H-benzo[e][1,4]diazepine-4-carbonyl)picolinamide] the value was 0.44 µM; for `CC[C@H](C)[C@H]1C(=O)Nc2ccccc2CN1C(=O)c1cnnn1C` [Compound 159, (S)-3-((S)-sec-butyl)-4-(1-methyl-1H-1,2,3-triazole-5-carbonyl)-1,3,4,5-tetrahydro-2H-benzo[e][1,4]diazepin-2-one], 0.59 µM. With `CC[C@H](C)[C@H]1C(=O)Nc2ccccc2CN1C(=O)c1ncc[nH]1` [Compound 160, (S)-3-((S)-sec-butyl)-4-(1H-imidazole-2-carbonyl)-1,3,4,5-tetrahydro-2H-benzo[e][1,4]diazepin-2-one] the figure was 0.16 µM; with `CC[C@H](C)[C@H]1C(=O)Nc2ccccc2CN1C(=O)C1CCC(=O)N1` (stereo partly drawn) [Compound 161, (3S)-3-((S)-sec-butyl)-4-(5-oxopyrrolidine-2-carbonyl)-1,3,4,5-tetrahydro-2H-benzo[e][1,4]diazepin-2-one], 2.25 µM; with `CC[C@H](C)[C@H]1C(=O)Nc2ccccc2CN1C(=O)c1cncc(C(N)=O)c1` [Compound 162, 5-((S)-3-((S)-sec-butyl)-2-oxo-2,3,4,5-tetrahydro-1H-benzo[e][1,4]diazepine-4-carbonyl)nicotinamide], 0.11 µM. With `CCOC(=O)c1ccc(C(=O)N2Cc3ccccc3NC(=O)[C@@H]2[C@@H](C)CC)[nH]1` [Compound 163, ethyl 5-((S)-3-((S)-sec-butyl)-2-oxo-2,3,4,5-tetrahydro-1H-benzo[e][1,4]diazepine-4-carbonyl)-1H-pyrrole-2-carboxylate] the figure was 0.05 µM; with `CC[C@H](C)[C@H]1C(=O)Nc2ccccc2CN1C(=O)c1cnn(C[C@@H](C)O)c1` [Compound 164, (S)-3-((S)-sec-butyl)-4-(1-((R)-2-hydroxypropyl)-1H-pyrazole-4-carbonyl)-1,3,4,5-tetrahydro-2H-benzo[e][1,4]diazepin-2-one], 0.10 µM; with `CC[C@H](C)[C@H]1C(=O)Nc2ccccc2CN1C(=O)c1ccc2c(c1)NC(=O)C2` [Compound 165, (S)-3-((S)-sec-butyl)-4-(2-oxoindoline-6-carbonyl)-1,3,4,5-tetrahydro-2H-benzo[e][1,4]diazepin-2-one], 0.14 µM. Take `CC[C@H](C)[C@H]1C(=O)Nc2ccccc2CN1C(=O)c1ccc(C(=O)O)[nH]1` [Compound 166, 5-((S)-3-((S)-sec-butyl)-2-oxo-2,3,4,5-tetrahydro-1H-benzo[e][1,4]diazepine-4-carbonyl)-1H-pyrrole-2-carboxylic acid]: the AC1.4 amounted to 0.45 µM. With `CC[C@H](C)[C@H]1C(=O)Nc2ccccc2CN1C(=O)c1ccc2c(c1)CC(=O)N2` [Compound 167, (S)-3-((S)-sec-butyl)-4-(2-oxoindoline-5-carbonyl)-1,3,4,5-tetrahydro-2H-benzo[e][1,4]diazepin-2-one], the AC1.4 is 0.05 µM.

In the case of `CC[C@H](C)[C@H]1C(=O)Nc2ccccc2CN1C(=O)c1cc2nc(C(N)=O)ccc2[nH]1` [Compound 168, 2-((S)-3-((S)-sec-butyl)-2-oxo-2,3,4,5-tetrahydro-1H-benzo[e][1,4]diazepine-4-carbonyl)-1H-pyrrolo[3,2-b]pyridine-5-carboxamide], the AC1.4 was 0.04 µM.

(Values after patent US12441691B2 (Cytokinetics, Inc., priority 2020, dated 2025).)
